In the test the target is E1CTD-E12 complex (Monkeypox virus Zaire-96-I-16, UniProt Q8V4Y7). Kind of test: biochemical.

The text below walks through data of publication PMC11212559 (Emerging Microbes & Infections, 2024).

As to `C[S+](CC[C@H](N)C(=O)O)C[C@H]1O[C@@H](n2cnc3c(N)ncnc32)[C@H](O)[C@@H]1O` (stereo partly shown) [SAM], the Kd is 3.87 µM.
